Laboratory results taken from patent US20250002493A1, “PYRIDONE COMPOUND AND PREPARATION METHOD THEREFOR, PHARMACEUTICAL COMPOSITION AND USE” (NANJING CHINA-AUSTRALIA INSTITUTE OF TRANSLATIONAL MEDICINE …, priority 2022, published 2025).

Tests used:
[1] = target: BIR3 domain of human cIAP1 (residues 255-364) (Homo sapiens (Human), UniProt Q13490); assay: Fluorescence polarization competitive binding to cIAP1 BIR3; details: FP, peptide probe 5 nM, cIAP1 BIR3 5 nM, 1 hour room temperature
Description: (§1) The binding affinity of the compounds provided by the present invention to IAP proteins was determined using a fluorescence polarization method (Nikolovska-Colesak et al, Anal. Biochem. 2004, 332:261-73). The recombinant BIR3 domains of human XIAP (residues 238-358), human cIAP1 (residues 255-364) and human cIAP2 (residues 236-342) fusing GST-tags were expressed in E. coli and purified using glutathione agarose 4B affinity chromatography and gel filtration chromatography. A 5-Fam fluorescently modified peptide probe (AbuRPFK(5-Fam)-NH2) was used to test the competitive binding ability of the compounds to the BIR3 domains of XIAP, cIAP1 and cIAP2. The peptide probe (5 nM), XIAP BIR3 (30 nM) or cIAP1 BIR3 (5 nM) or cIAP2 BIR3 (10 nM), and serial diluted compounds were mixed in a test buffer (100 mM potassium phosphate pH 7.5, 100 μg/ml bovine gamma globulin, 0.02% sodium azide, and 1 mM DTT). After incubating the samples at room temperature for 1 hour, the fluorescence polarization values were read using a Tecan microplate reader (FP excitation wavelength 485 nm, […] wavelength 530 nm). The IC50 value was obtained by fitting the curve using nonlinear least square regression with the Graphpad Prism software. The inhibition constant Ki, values were calculated using the Equation Ki, [I]50/([L]50/Kd+[P]0/Kd+1).

[2] = target: BIR3 domain of human cIAP2 (residues 236-342) (Homo sapiens (Human), UniProt Q13489); assay: Fluorescence polarization competitive binding to cIAP2 BIR3; details: FP, peptide probe 5 nM, cIAP2 BIR3 10 nM, 1 hour room temperature
Description: as §1

[3] = target: BIR3 domain of human XIAP (residues 238-358) (Homo sapiens (Human), UniProt P98170); assay: Fluorescence polarization competitive binding to XIAP BIR3; details: FP, peptide probe 5 nM, XIAP BIR3 30 nM, 1 hour room temperature
Description: as §1

[4] = tested on: MDA-MB-231 human breast cancer cells; assay: WST-8 cell proliferation assay, MDA-MB-231; format: cell-based; details: 72 hours
Description: (§2) The effects of the compounds provided by the present invention on the proliferation of different cancer cell lines were tested using the WST-8 assay kit. This method is based on the reduction of WST-8 by dehydrogenase in live cells to form a highly water-soluble yellow Formazan dye. Cells were seeded in a 96-well plate and cultured with the test compounds at 37° C. under 5% CO2 for 72 hours. Afterwards, 10% (v/v) WST-8 was added, and the samples were incubated for an additional 2-3 hours. The absorbance of the samples was measured at 450 nm using a Tecan microplate reader, and the concentration of the compound that inhibited 50% of cell proliferation (IC50, nM) was calculated. The activity of the compounds provided by the present invention was determined in three cancer cell lines: MDA-MB-231 human breast cancer cells, SK-OV-3 human ovarian cancer cells, and PANC1 human pancreatic cancer.

[5] = tested on: SK-OV-3 human ovarian cancer cells; assay: WST-8 cell proliferation assay, SK-OV-3; format: cell-based; details: 72 hours, read-out: SKOV-3 IC50
Description: as §2

[6] = tested on: PANC1 human pancreatic cancer; assay: WST-8 cell proliferation assay, PANC1; format: cell-based; details: PANC-1, 72 hours
Description: as §2

MDA-MB-231 cancer cells = assay: Inhibitor-induced apoptosis, flow cytometry with Annexin V and propidium iodide; format: cell-based, human; details: 3 hours
Description: After treating the cells with 10 nM and 100 nM concentrations of the compounds for 3 hours, the induction of apoptosis was analyzed using flow cytometry with Annexin V and propidium iodide staining.

BIR3 domain of human XIAP (residues 238-358), sequence (P98170 238-358): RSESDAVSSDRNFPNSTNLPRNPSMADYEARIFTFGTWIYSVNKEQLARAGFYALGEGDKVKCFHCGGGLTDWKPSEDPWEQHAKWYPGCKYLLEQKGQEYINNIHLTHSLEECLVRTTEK
BIR3 domain of human cIAP2 (residues 236-342), sequence (Q13489 236-342): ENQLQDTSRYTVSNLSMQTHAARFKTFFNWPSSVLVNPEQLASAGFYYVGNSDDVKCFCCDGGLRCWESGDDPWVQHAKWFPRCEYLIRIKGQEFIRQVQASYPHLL
BIR3 domain of human cIAP1 (residues 255-364), sequence (Q13490 255-364): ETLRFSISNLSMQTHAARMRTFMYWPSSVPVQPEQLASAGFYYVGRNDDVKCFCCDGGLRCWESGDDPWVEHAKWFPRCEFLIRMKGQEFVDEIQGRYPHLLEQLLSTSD

- Ki [1]: 1.3 nM
- Ki [2]: 2.4 nM
- Ki [3]: 9.4 nM
- IC50 [4]: 4 nM
- IC50 [5]: 1 nM
- IC50 [6]: 16 nM
SMILES: CN[C@@H](C)C(=O)N[C@H](C(=O)N1CCc2[nH]c(=O)c(Cc3ccc(F)cc3F)cc21)C(C)(C)C [Compound I-4-2]
- Proportion of apoptotic cells (MDA-MB-231 cancer cells; Drug concentration 10 nM): 41%
- Proportion of apoptotic cells (MDA-MB-231 cancer cells; Drug concentration 100 nM): 54%
